Experiment: Inhibition of Bacillus stearothermophilus alpha-glucosidase type 4
Design: species or system Geobacillus stearothermophilus

IC50	Structure (SMILES)
118 µM	COCC1=CCc2cc(OC)ccc2-c2cc(O)c(OC)cc21
77.1 µM	COc1cc([C@@H]2Oc3c(OC)cc(CCCO)cc3[C@@H]2CO[C@@H]2OC[C@@H](O)[C@H](O)[C@H]2O)ccc1O
> 150 µM	CC/C=C/CCO[C@@H]1O[C@H](CO)[C@@H](O)[C@H](O)[C@H]1O
> 150 µM	C=CCc1ccc(O[C@@H]2O[C@H](CO[C@@H]3OC[C@](O)(CO)[C@H]3O)[C@@H](O)[C@H](O)[C@H]2O)cc1
> 150 µM	CCCC(=O)c1c(O)cc(O)cc1O[C@@H]1O[C@H](CO)[C@@H](O)[C@H](O)[C@H]1O
39.8 µM	O=C1C[C@H](c2ccc(O)cc2)Oc2cc(O)cc(O[C@@H]3O[C@H](CO)[C@@H](O)[C@H](O)[C@H]3O)c21
28.3 µM	O=C1C[C@@H](c2ccc(O)cc2)Oc2cc(O)cc(O[C@@H]3O[C@H](CO)[C@@H](O)[C@H](O)[C@H]3O)c21
0.034 µM	C[C@H]1O[C@H](O[C@H]2[C@H](O)[C@@H](O)[C@@H](O[C@H]3[C@H](O)[C@@H](O)C(O)O[C@@H]3CO)O[C@@H]2CO)[C@H](O)[C@@H](O)[C@@H]1N[C@H]1C=C(CO)[C@@H](O)[C@H](O)[C@H]1O (some centres undefined) [ACARBOSE]
110 µM	C[C@@H]1O[C@@H](OC[C@H]2O[C@@H](Oc3c(-c4ccc(O)cc4)oc4cc(O)cc(O)c4c3=O)[C@H](O)[C@@H](O)[C@@H]2O)[C@H](O)[C@H](O)[C@H]1O [NICOTIFLOROSIDE]
60.5 µM	O=C(CCc1ccc(O)cc1)c1c(O)cc(O)cc1O[C@@H]1O[C@H](CO)[C@@H](O)[C@H](O)[C@H]1O [PHLORIZIN]
142 µM	COc1cc2c(cc1O)-c1ccccc1CC=C2CO[C@@H]1O[C@H](CO)[C@@H](O)[C@H](O)[C@H]1O [SUBAVENOSIDE A]
50.7 µM	COc1cc2c(cc1O[C@@H]1O[C@H](CO)[C@@H](O)[C@H](O)[C@H]1O)-c1ccccc1CC=C2CO [SUBAVENOSIDE D]
19 µM	COCC1=CCc2cc(OC)ccc2-c2cc(O[C@@H]3O[C@H](CO)[C@@H](O)[C@H](O)[C@H]3O)c(OC)cc21 [SUBAVENOSIDE E]

Structure (SMILES)	IC50
OCCc1ccc(O)c(O)c1 [HYDROXYTYROSOL]	109 µM

Source: ChEMBL document CHEMBL2150949, “Dibenzocycloheptanoids from the leaves of Cinnamomum subavenium” (J Nat Prod, 2012)
